Measured values: publication PMC12857369 (Kidney International Reports, 2025)

Target: T1, chymase (Homo sapiens, UniProt P23946)
T1 construct: gene CMA1; recombinant human chymase
T1 sequence (P23946 22-247): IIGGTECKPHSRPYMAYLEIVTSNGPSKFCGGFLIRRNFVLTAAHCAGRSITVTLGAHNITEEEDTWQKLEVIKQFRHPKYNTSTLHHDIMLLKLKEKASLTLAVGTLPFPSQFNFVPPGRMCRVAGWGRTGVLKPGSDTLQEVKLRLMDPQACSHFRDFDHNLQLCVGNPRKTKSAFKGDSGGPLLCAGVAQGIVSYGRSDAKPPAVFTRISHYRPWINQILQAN
Experiment: Ang I to Ang II conversion by recombinant human chymase, LC-MS/MS dose response
Type: biochemical

SMILES: CC(C)C[C@H](NC(=O)[C@@H](NC(=O)N[C@@H](Cc1ccccc1)C(=O)O)[C@@H]1CCN=C(N)N1)C(=O)N[C@H](C=O)Cc1ccccc1 [chymostatin]
- IC50: 60 nM
